From the NIST ThermoML archive (doi:10.1021/je800571y)
± gives the expanded uncertainty stated by the source.

Assay: xn = mol fraction of the nth substance listed
Conditions: 101 kPa, Liquid

CCC(C)=O [butanone] + CCC(C)O
Conditions	mass density, 293.15 K [kg/m3]	mass density, 298.15 K [kg/m3]	mass density, 303.15 K [kg/m3]	mass density, 308.15 K [kg/m3]	mass density, 313.15 K [kg/m3]	viscosity, 293.15 K [mPa·s]	viscosity, 298.15 K [mPa·s]	viscosity, 303.15 K [mPa·s]	viscosity, 308.15 K [mPa·s]	viscosity, 313.15 K [mPa·s]
x1 = 0.0684	806.36 ± 1	802.16 ± 1	798.67 ± 1.1	793.88 ± 1.1	789.68 ± 1.1	2.91 ± 0.52	2.429 ± 0.44	2.037 ± 0.37	1.692 ± 0.32	1.499 ± 0.28
x1 = 0.1365	806.25 ± 1	801.98 ± 1	798.39 ± 1.1	793.58 ± 1.1	789.29 ± 1.1	2.34 ± 0.43	2.007 ± 0.37	1.649 ± 0.31	1.339 ± 0.26	1.228 ± 0.24
x1 = 0.2044	806.14 ± 1	801.79 ± 1	798.1 ± 1.1	793.28 ± 1.1	788.9 ± 1.2	1.87 ± 0.35	1.613 ± 0.3	1.352 ± 0.26	1.054 ± 0.21	1.003 ± 0.2
x1 = 0.2721	806.03 ± 1	801.61 ± 1	797.82 ± 1.1	792.98 ± 1.1	788.51 ± 1.2	1.491 ± 0.28	1.299 ± 0.25	1.074 ± 0.21	0.8161 ± 0.17	0.8187 ± 0.17
x1 = 0.3395	805.92 ± 1	801.43 ± 1	797.54 ± 1.1	792.68 ± 1.1	788.13 ± 1.2	1.183 ± 0.23	1.051 ± 0.21	0.8484 ± 0.17	0.6282 ± 0.13	0.6806 ± 0.14
x1 = 0.4066	805.81 ± 1	801.25 ± 1.1	797.26 ± 1.1	792.39 ± 1.1	787.74 ± 1.2	0.9558 ± 0.19	0.8537 ± 0.17	0.6826 ± 0.14	0.5076 ± 0.11	0.5709 ± 0.12
x1 = 0.4735	805.71 ± 1.1	801.07 ± 1.1	796.98 ± 1.1	792.09 ± 1.2	787.36 ± 1.2	0.7693 ± 0.16	0.687 ± 0.14	0.5613 ± 0.12	0.4126 ± 0.096	0.4786 ± 0.11
x1 = 0.5402	805.61 ± 1.1	800.9 ± 1.1	796.71 ± 1.1	791.8 ± 1.2	786.97 ± 1.2	0.6236 ± 0.13	0.56 ± 0.12	0.4526 ± 0.1	0.3601 ± 0.087	0.4206 ± 0.098
x1 = 0.6066	805.5 ± 1.1	800.72 ± 1.1	796.43 ± 1.1	791.51 ± 1.2	786.59 ± 1.2	0.5287 ± 0.12	0.48 ± 0.11	0.3944 ± 0.093	0.326 ± 0.081	0.3681 ± 0.088
x1 = 0.6727	805.4 ± 1.1	800.55 ± 1.1	796.16 ± 1.1	791.22 ± 1.2	786.21 ± 1.2	0.4645 ± 0.11	0.4282 ± 0.099	0.3468 ± 0.085	0.3051 ± 0.078	0.3429 ± 0.084
x1 = 0.7387	805.3 ± 1.1	800.38 ± 1.1	795.89 ± 1.1	790.93 ± 1.2	785.83 ± 1.2	0.4412 ± 0.1	0.3922 ± 0.093	0.3077 ± 0.078	0.309 ± 0.078	0.3191 ± 0.08
x1 = 0.8044	805.21 ± 1.1	800.1 ± 1.1	795.62 ± 1.1	790.64 ± 1.2	785.45 ± 1.2	0.4486 ± 0.1	0.362 ± 0.087	0.3031 ± 0.077	0.3112 ± 0.079	0.2915 ± 0.075
x1 = 0.8698	805.11 ± 1.1	800.04 ± 1.1	795.35 ± 1.1	790.35 ± 1.2	785.07 ± 1.2	0.4468 ± 0.1	0.3482 ± 0.085	0.3071 ± 0.078	0.3186 ± 0.08	0.2805 ± 0.073
x1 = 0.935	805.01 ± 1.1	799.87 ± 1.1	795.08 ± 1.1	790.06 ± 1.2	784.7 ± 1.2	0.42 ± 0.098	0.3 ± 0.077	0.2786 ± 0.073	0.2966 ± 0.076	0.2718 ± 0.072
x1 = 1	804.92 ± 1.1	799.7 ± 1.1	794.81 ± 1.1	789.78 ± 1.2	784.32 ± 1.2	0.3956 ± 0.093	0.2828 ± 0.074	0.2666 ± 0.071	0.2601 ± 0.07	0.2545 ± 0.069
